Test results: ChEMBL document CHEMBL1132784, “Dibasic inhibitors of human mast cell tryptase. Part 2: structure-activity relationships and requirements for potent activity” (Bioorg Med Chem Lett, 2000)

Key:
[1] = target: Prothrombin (Homo sapiens, UniProt P00734); assay: Compound was evaluated for its inhibitory potency against thrombin
[2] = target: Serine protease 1 (Homo sapiens, UniProt P07477); assay: Compound was evaluated for its inhibitory potency against trypsin
[3] = target: Plasminogen (Homo sapiens, UniProt P00747); assay: Compound was evaluated for its inhibitory potency against plasmin
[4] = target: Tryptase (Homo sapiens, UniProt Q9BZJ3+Q15661+Q9NRR2); assay: Evaluated for its inhibitory potency against tryptase; format: protein assay

Plasminogen, sequence (P00747 97-580 limits assumed): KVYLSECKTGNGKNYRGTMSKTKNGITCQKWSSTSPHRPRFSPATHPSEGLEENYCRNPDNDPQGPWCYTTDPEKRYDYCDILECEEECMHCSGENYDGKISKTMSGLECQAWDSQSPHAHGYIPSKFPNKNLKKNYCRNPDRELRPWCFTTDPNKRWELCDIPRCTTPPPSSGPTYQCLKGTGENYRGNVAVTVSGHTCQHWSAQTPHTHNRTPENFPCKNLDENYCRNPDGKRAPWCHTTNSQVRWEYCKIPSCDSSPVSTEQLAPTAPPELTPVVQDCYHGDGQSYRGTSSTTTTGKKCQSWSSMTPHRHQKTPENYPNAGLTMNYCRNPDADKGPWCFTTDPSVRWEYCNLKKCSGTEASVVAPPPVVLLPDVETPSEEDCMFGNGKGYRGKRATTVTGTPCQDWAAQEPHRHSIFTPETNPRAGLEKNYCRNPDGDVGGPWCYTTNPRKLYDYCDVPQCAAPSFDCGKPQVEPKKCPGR
Plasminogen, sequence (P00747 581-810 limits assumed): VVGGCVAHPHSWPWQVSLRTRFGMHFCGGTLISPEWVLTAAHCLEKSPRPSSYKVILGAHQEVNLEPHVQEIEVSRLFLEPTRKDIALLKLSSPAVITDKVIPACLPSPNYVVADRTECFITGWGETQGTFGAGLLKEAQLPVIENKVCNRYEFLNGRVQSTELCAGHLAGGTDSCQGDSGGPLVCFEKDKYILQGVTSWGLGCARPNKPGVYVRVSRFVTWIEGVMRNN
Serine protease 1, sequence (P07477 whole entry): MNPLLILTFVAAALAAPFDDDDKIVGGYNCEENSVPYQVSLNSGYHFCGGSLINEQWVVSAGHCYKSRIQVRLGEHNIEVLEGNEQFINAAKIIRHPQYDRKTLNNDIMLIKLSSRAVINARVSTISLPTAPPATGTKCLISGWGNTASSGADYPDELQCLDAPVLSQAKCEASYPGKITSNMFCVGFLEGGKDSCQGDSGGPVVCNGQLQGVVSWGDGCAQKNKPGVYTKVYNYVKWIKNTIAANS

Ki [1]	Ki [2]	Ki [3]	Ki [4]	SMILES
> 1000 µM	126 µM	> 1000 µM	0.82 µM	N=C(N)Nc1ccc(CNC(=O)N2CCN(C(=O)O[C@H]3CCC[C@@H](OC(=O)N4CCN(C(=O)NCc5ccc(N)cc5)CC4)CCC3)CC2)cc1
> 1000 µM	138 µM	> 1000 µM	0.044 µM	N=C(N)Nc1ccc(CNC(=O)N2CCN(C(=O)O[C@H]3CCC[C@@H](OC(=O)N4CCN(C(=O)NCCCN)CC4)CCC3)CC2)cc1
> 1000 µM	754 µM	> 1000 µM	0.011 µM	NCCCCCNC(=O)N1CCN(C(=O)O[C@H]2CCC[C@@H](OC(=O)N3CCN(C(=O)NCCCCCN)CC3)CCC2)CC1
269 µM	110 µM	> 1000 µM	3 µM	CN1CCC(CCNC(=O)N2CCN(C(=O)O[C@H]3CCC[C@@H](OC(=O)N4CCN(C(=O)NCc5ccc(NC(=N)N)cc5)CC4)CCC3)CC2)CC1
255 µM	82 µM	> 1000 µM	0.0005 µM	N=C(N)Nc1ccc(CC(=O)N2CCN(C(=O)O[C@H]3CCC[C@@H](OC(=O)N4CCN(C(=O)Cc5ccc(NC(=N)N)cc5)CC4)CCC3)CC2)cc1
> 1000 µM	> 1000 µM	> 1000 µM	0.002 µM	NCCc1ccc(CC(=O)N2CCN(C(=O)O[C@H]3CCC[C@@H](OC(=O)N4CCN(C(=O)Cc5ccc(CCN)cc5)CC4)CCC3)CC2)cc1
146 µM	> 1000 µM	> 1000 µM	0.61 µM	N=C(N)N1CCC(CNC(=O)N2CCN(C(=O)O[C@H]3CCC[C@@H](OC(=O)N4CCN(C(=O)NCC5CCN(C(=N)N)CC5)CC4)CCC3)CC2)CC1
> 1000 µM	> 1000 µM	> 1000 µM	0.016 µM	NC[C@H]1CC[C@H](CNC(=O)N2CCN(C(=O)O[C@H]3CCC[C@@H](OC(=O)N4CCN(C(=O)NC[C@H]5CC[C@H](CN)CC5)CC4)CCC3)CC2)CC1
123 µM	20 µM	3 µM	0.0004 µM	N=C(N)Nc1ccc(CNC(=O)N2CCN(C(=O)OCC34CCC(COC(=O)N5CCN(C(=O)NCc6ccc(NC(=N)N)cc6)CC5)(CC3)CC4)CC2)cc1
138 µM	15 µM	700 µM	0.008 µM	N=C(N)Nc1ccc(CNC(=O)N2CCN(C(=O)OC[C@H]3C4C=CC(CC4)[C@@H]3COC(=O)N3CCN(C(=O)NCc4ccc(NC(=N)N)cc4)CC3)CC2)cc1
> 1000 µM	141 µM	> 1000 µM	0.001 µM	N=C(N)Nc1ccc(CNC(=O)N2CCN(C(=O)O[C@H]3CCC[C@@H](OC(=O)N4CCN(C(=O)NC[C@H]5CC[C@H](N)CC5)CC4)CCC3)CC2)cc1
112 µM	850 µM	632 µM	0.03 µM	N=C(N)N1CCC(CCNC(=O)N2CCN(C(=O)O[C@H]3CCC[C@@H](OC(=O)N4CCN(C(=O)NCCC5CCN(C(=N)N)CC5)CC4)CCC3)CC2)CC1
274 µM	171 µM	> 1000 µM	0.078 µM	N=C(N)Nc1ccc(CNC(=O)N2CCN(C(=O)O[C@H]3CCC[C@@H](OC(=O)N4CCN(C(=O)NC[C@H]5CC[C@@H](N)CC5)CC4)CCC3)CC2)cc1
> 1000 µM	> 1000 µM	> 1000 µM	6 µM	CNCc1ccc(CNC(=O)N2CCN(C(=O)O[C@H]3CCC[C@@H](OC(=O)N4CCN(C(=O)NCc5ccc(CNC)cc5)CC4)CCC3)CC2)cc1
> 1000 µM	165 µM	> 1000 µM	41 µM	N=C(N)Nc1ccc(CNC(=O)N2CCN(C(=O)O[C@H]3CCC[C@@H](OC(=O)N4CCN(C(=O)CCc5cnc(N)nc5)CC4)CCC3)CC2)cc1
> 1000 µM	121 µM	> 1000 µM	0.003 µM	N=C(N)Nc1ccc(CNC(=O)N2CCN(C(=O)O[C@H]3CCC[C@@H](OC(=O)N4CCN(C(=O)NCCC5CCNCC5)CC4)CCC3)CC2)cc1
> 1000 µM	> 1000 µM	> 1000 µM	0.115 µM	O=C(NCCC1CCNCC1)N1CCN(C(=O)O[C@H]2CCC[C@@H](OC(=O)N3CCN(C(=O)NCCC4CCNCC4)CC3)CCC2)CC1
			15 µM	N=C(N)Nc1ccc(CNC(=O)N2CCN(C(=O)O[C@H]3CCC[C@@H](OC(=O)N4CCN(C(=O)NCc5ccccc5)CC4)CCC3)CC2)cc1
> 1000 µM	111 µM	> 1000 µM	0.097 µM	N=C(N)Nc1ccc(CNC(=O)N2CCN(C(=O)O[C@H]3CCC[C@@H](OC(=O)N4CCN(C(=O)CCNc5ccncc5)CC4)CCC3)CC2)cc1
741 µM	156 µM	> 1000 µM	0.08 µM	N=C(N)Nc1ccc(CNC(=O)N2CCN(C(=O)O[C@H]3CCC[C@@H](OC(=O)N4CCN(C(=O)CCSc5ccncc5)CC4)CCC3)CC2)cc1
> 1000 µM	144 µM	> 1000 µM	1 µM	N=C(N)Nc1ccc(CNC(=O)N2CCN(C(=O)O[C@H]3CCC[C@@H](OC(=O)N4CCN(C(=O)CCCCn5ccnc5)CC4)CCC3)CC2)cc1

Ki [1]	Ki [2]	Ki [3]	Ki [4]	SMILES
34 µM	11 µM	155 µM	0.0002 µM	N=C(N)c1ccc(CC(=O)N2CCN(C(=O)O[C@H]3CCC[C@@H](OC(=O)N4CCN(C(=O)Cc5ccc(C(=N)N)cc5)CC4)CCC3)CC2)cc1
60 µM	25 µM	134 µM	0.009 µM	N=C(N)c1ccc(CNC(=O)N2CCN(C(=O)O[C@H]3CCC[C@@H](OC(=O)N4CCN(C(=O)NCc5ccc(C(=N)N)cc5)CC4)CCC3)CC2)cc1
29 µM	21 µM	66 µM	0.0004 µM	N=C(N)c1ccc(CCC(=O)N2CCN(C(=O)O[C@H]3CCC[C@@H](OC(=O)N4CCN(C(=O)CCc5ccc(C(=N)N)cc5)CC4)CCC3)CC2)cc1
> 1000 µM	> 1000 µM	> 1000 µM	> 1000 µM	CC(=N)N1CCC(CNC(=O)N2CCN(C(=O)O[C@H]3CCC[C@@H](OC(=O)N4CCN(C(=O)NCC5CCN(C(C)=N)CC5)CC4)CCC3)CC2)CC1
> 1000 µM	132 µM	> 1000 µM	0.004 µM	N=C(N)Nc1ccc(CNC(=O)N2CCN(C(=O)O[C@H]3CCC[C@@H](OC(=O)N4CCN(C(=O)NCCCCN)CC4)CCC3)CC2)cc1
> 1000 µM	4 µM		0.028 µM	N=C(N)Nc1ccc(CNC(=O)N2CCN(C(=O)O[C@H]3C[C@H]4C[C@@H](OC(=O)N5CCN(C(=O)NCc6ccc(NC(=N)N)cc6)CC5)C[C@H]4C3)CC2)cc1
> 1000 µM	52 µM	> 1000 µM	0.004 µM	N=C(N)Nc1ccc(CNC(=O)N2CCN(C(=O)CCCCCC(=O)N3CCN(C(=O)NCc4ccc(NC(=N)N)cc4)CC3)CC2)cc1
> 1000 µM	80 µM	> 1000 µM	0.24 µM	N=C(N)Nc1ccc(CNC(=O)N2CCN(C(=O)O[C@H]3CCC[C@@H](OC(=O)N4CCN(C(=O)NCCCC5CCNCC5)CC4)CCC3)CC2)cc1
> 1000 µM	156 µM	> 1000 µM	0.18 µM	N=C(N)Nc1ccc(CNC(=O)N2CCN(C(=O)O[C@H]3CCC[C@@H](OC(=O)N4CCN(C(=O)CCc5ccc(N)nc5)CC4)CCC3)CC2)cc1
> 1000 µM	171 µM	> 1000 µM	0.03 µM	N=C(N)Nc1ccc(CNC(=O)N2CCN(C(=O)O[C@H]3CCC[C@@H](OC(=O)N4CCN(C(=O)CCCCCn5ccnc5)CC4)CCC3)CC2)cc1
537 µM	> 1000 µM	> 1000 µM	0.21 µM	N=C(N)Nc1ccc(CCC(=O)N2CCN(C(=O)O[C@H]3CCC[C@@H](OC(=O)N4CCN(C(=O)CCc5ccc(NC(=N)N)cc5)CC4)CCC3)CC2)cc1
138 µM	15 µM	700 µM		N=C(N)Nc1ccc(CNC(=O)N2CCN(C(=O)O[C@@H]3CO[C@H]4[C@@H]3OC[C@H]4OC(=O)N3CCN(C(=O)NCc4ccc(NC(=N)N)cc4)CC3)CC2)cc1
> 1000 µM	54 µM	316 µM	0.044 µM	N=C(N)Nc1ccc(CNC(=O)N2CCN(C(=O)CCCCC(=O)N3CCN(C(=O)NCc4ccc(NC(=N)N)cc4)CC3)CC2)cc1
> 1000 µM	29 µM	> 1000 µM	0.0005 µM	N=C(N)Nc1ccc(CNC(=O)N2CCN(C(=O)CCCCCCCC(=O)N3CCN(C(=O)NCc4ccc(NC(=N)N)cc4)CC3)CC2)cc1
> 1000 µM	126 µM	> 1000 µM	0.68 µM	CN(CCC1CCNCC1)C(=O)N1CCN(C(=O)O[C@H]2CCC[C@@H](OC(=O)N3CCN(C(=O)NCc4ccc(NC(=N)N)cc4)CC3)CCC2)CC1
> 1000 µM	219 µM	> 1000 µM	0.0001 µM	NCc1ccc(CNC(=O)N2CCN(C(=O)O[C@H]3CCC[C@@H](OC(=O)N4CCN(C(=O)NCc5ccc(CN)cc5)CC4)CCC3)CC2)cc1
> 1000 µM	148 µM	> 1000 µM	0.07 µM	N=C(N)Nc1ccc(CNC(=O)N2CCN(C(=O)O[C@H]3CCC[C@@H](OC(=O)N4CCN(C(=O)NCC5CCNCC5)CC4)CCC3)CC2)cc1
213 µM	171 µM	> 1000 µM	0.002 µM	N=C(N)N1CCC(CCC(=O)N2CCN(C(=O)O[C@H]3CCC[C@@H](OC(=O)N4CCN(C(=O)CCC5CCN(C(=N)N)CC5)CC4)CCC3)CC2)CC1
	28 µM	> 1000 µM	0.003 µM	N=C(N)Nc1ccc(CNC(=O)N2CCN(C(=O)OC[C@H]3CC[C@H](COC(=O)N4CCN(C(=O)NCc5ccc(NC(=N)N)cc5)CC4)CC3)CC2)cc1
			101 µM	O=C(NCc1ccccc1)N1CCN(C(=O)O[C@H]2CCC[C@@H](OC(=O)N3CCN(C(=O)NCc4ccccc4)CC3)CCC2)CC1

SMILES	Ki [1]	Ki [2]	Ki [3]	Ki [4]
NCCCCNC(=O)N1CCN(C(=O)O[C@H]2CCC[C@@H](OC(=O)N3CCN(C(=O)NCCCCN)CC3)CCC2)CC1	> 1000 µM	> 1000 µM	> 1000 µM	0.51 µM
